{
  "source": "patent US20020193252A1",
  "about": "“Weeding method with sodium hydrogen carbonate” (The Hiraoka Environmental Science Laboratory, priority 2001, published 2002)",
  "key": {"[1]": {"test_system": "Equisetum arvense and Taraxacum", "conditions": "400 mL/m^2; for Killing Rate of Weeds: after 9 days from spraying", "description": "(§1) A mixture of Equisetum arvense and Taraxacum having an average height of about 20 cm and grass having an average height of about 10 cm in a test field having an area of 0.5 m^2 in Yokohama-city, Kanagawa-prefecture, Japan were subjected to a field weeding test by spraying an aqueous solution of sodium hydrogen carbonate with a watering pot in the last third of October.\n(§2) An aqueous solution of sodium hydrogen carbonate having a concentration of 2.5 weight %, 5.0 weight %, 8.0 weight % and 10.0 weight %, respectively, was uniformly sprayed to a mixture of Equisetum arvense and Taraxacum and grass in an amount of 400 mL/m^2 for each. […] The killing degree of the weeds was measured by the naked eye after 9 days from spraying to determine the killing rate of weeds in the same manner as in EXAMPLE 1."}, "grass": {"test_system": "grass", "conditions": "400 mL/m^2; for Killing Rate of Weeds: after 9 days from spraying", "description": "as §1, §2"}, "[2]": {"test_system": "Equisetum arvense and Taraxacum", "conditions": "400 ml/m^2 sprayed on days 0,7,14,21, weeds cut on day 54", "description": "(§3) A mixture of Equisetum arvense and Taraxacum having an average height of about 5 cm and Imperata cylindrica having an average height of about 5 cm in a test field having an area of 0.5 m^2 in Yokohama-city, Kanagawa-prefecture, Japan were subjected to the following field weeding test from the last third of July to the first third of November. […] Incidentally, the area ratio of weeds was assumed as 100% when the weeds proliferated to such an extent that they completely concealed the soil surface.\n(§4) A saturated aqueous solution of sodium hydrogen carbonate was sprayed to each test field in an amount of 400 ml/m^2 by a watering pot, and then sprayed in the same way after 7 days, 14 days and 21 days, respectively. The area ratio and average height of weeds were measured by the naked eye after 26 days from the start of spraying. The weeds were totally cut after 54 days from the start of spraying. Thereafter, the weeds were left to grow without spraying an aqueous solution of sodium hydrogen carbonate. The area ratio and average height of weeds were measured by the naked eye after 64 days, 67 days, 73 days, 78 days, 86 days, 91 days and 95 days, respectively, from the start of spraying. For comparison, a mixture of Equisetum arvense and Taraxacum and Imperata cylindrica, to which an aqueous solution of sodium hydrogen carbonate was not sprayed, were subjected to the same measurement with respect to an area ratio and an average height."}, "Imperata cylindrica": {"test_system": "Imperata cylindrica", "conditions": "400 ml/m^2 sprayed on days 0,7,14,21, weeds cut on day 54", "description": "as §3, §4"}, "[3]": {"test_system": "Weeds mainly consisting of Japanese nutmeg, Coix lacryma-jobi, Pueraria lobata and Solidago serotina", "conditions": "70 g/L, 16 litter/m^2, 150 kgf/cm^2, 60 second/m^2; weeds about 60 cm; leaves turned yellow or black"}, "[4]": {"test_system": "Weeds mainly consisting of Pueraria lobata, Cayratia japonica and Solidago serotina", "conditions": "80° C., 140 g/L, 16 litter/m^2, 150 kgf/cm^2, 60 second/m^2; weeds about 60 cm; leaves turned black"}, "[5]": {"conditions": "saturated aqueous solution"}, "[6]": {"test_system": "Equisetaceae weeds, Leguminosae weeds and wide leaves weeds"}, "[7]": {"test_system": "Gramineae weeds except for grass (Zoysia japonica)", "conditions": "spraying once a week"}, "[8]": {"conditions": "2.5-10.0 weight % solution, last third of October"}},
  "note": "Read-outs that look alike come from different tables or passages of the source.",
  "data": [
    {"smiles": "O=C([O-])O.[Na+]", "note": "[sodium hydrogen carbonate]", "values": [
      {"measurement": "time after spraying from which part of the weeds started to die with leaves turned black", "setting": "[1]; [8]", "value": "2 to 3", "unit": "days"},
      {"measurement": "Killing Rate of Weeds", "setting": "[1]; concentration 5.0 weight %", "value": 30, "unit": "%"},
      {"measurement": "Killing Rate of Weeds", "setting": "[1]; concentration 8.0 weight %", "value": 65, "unit": "%"},
      {"measurement": "Killing Rate of Weeds", "setting": "[1]; concentration 10.0 weight %", "value": 80, "unit": "%"},
      {"measurement": "Killing Rate of Weeds", "setting": "[1]; concentration 25 weight %", "value": 10, "unit": "%"},
      {"measurement": "time after spraying from which part of grass started to die with leaves turned yellow", "setting": "grass; [8]", "value": "2 to 3", "unit": "days"},
      {"measurement": "Killing Rate of Weeds", "setting": "grass; concentration 5.0 weight %", "value": 50, "unit": "%"},
      {"measurement": "Killing Rate of Weeds", "setting": "grass; concentration 8.0 weight %", "value": 70, "unit": "%"},
      {"measurement": "Killing Rate of Weeds", "setting": "grass; concentration 10.0 weight %", "value": 85, "unit": "%"},
      {"measurement": "Killing Rate of Weeds", "setting": "grass; concentration 25 weight %", "value": 40, "unit": "%"},
      {"measurement": "Area Ratio of Weeds", "setting": "[2]; 0 days passed", "value": 50, "unit": "%"},
      {"measurement": "Average Height", "setting": "[2]; 0 days passed", "value": 5, "unit": "cm"},
      {"measurement": "Area Ratio of Weeds", "setting": "[2]; 7 days passed", "value": 5, "unit": "%"},
      {"measurement": "Average Height", "setting": "[2]; 7 days passed", "value": 0, "unit": "cm"},
      {"measurement": "Area Ratio of Weeds", "setting": "[2]; 14 days passed", "value": 5, "unit": "%"},
      {"measurement": "Average Height", "setting": "[2]; 14 days passed", "value": 0, "unit": "cm"},
      {"measurement": "Area Ratio of Weeds", "setting": "[2]; 21 days passed", "value": 5, "unit": "%"},
      {"measurement": "Average Height", "setting": "[2]; 21 days passed", "value": 0, "unit": "cm"},
      {"measurement": "Area Ratio of Weeds", "setting": "[2]; 26 days passed", "value": 5, "unit": "%"},
      {"measurement": "Average Height", "setting": "[2]; 26 days passed", "value": 0, "unit": "cm"},
      {"measurement": "Area Ratio of Weeds", "setting": "[2]; 54 days passed", "value": 0, "unit": "%"},
      {"measurement": "Average Height", "setting": "[2]; 54 days passed", "value": 0, "unit": "cm"},
      {"measurement": "Area Ratio of Weeds", "setting": "[2]; 64 days passed", "value": 0, "unit": "%"},
      {"measurement": "Average Height", "setting": "[2]; 64 days passed", "value": 0, "unit": "cm"},
      {"measurement": "Area Ratio of Weeds", "setting": "[2]; 67 days passed", "value": 0, "unit": "%"},
      {"measurement": "Average Height", "setting": "[2]; 67 days passed", "value": 0, "unit": "cm"},
      {"measurement": "Area Ratio of Weeds", "setting": "[2]; 73 days passed", "value": 5, "unit": "%"},
      {"measurement": "Average Height", "setting": "[2]; 73 days passed", "value": 5, "unit": "cm"},
      {"measurement": "Area Ratio of Weeds", "setting": "[2]; 78 days passed", "value": 10, "unit": "%"},
      {"measurement": "Average Height", "setting": "[2]; 78 days passed", "value": 7, "unit": "cm"},
      {"measurement": "Area Ratio of Weeds", "setting": "[2]; 86 days passed", "value": 10, "unit": "%"},
      {"measurement": "Average Height", "setting": "[2]; 86 days passed", "value": 10, "unit": "cm"},
      {"measurement": "Area Ratio of Weeds", "setting": "[2]; 91 days passed", "value": 20, "unit": "%"},
      {"measurement": "Average Height", "setting": "[2]; 91 days passed", "value": 10, "unit": "cm"},
      {"measurement": "Area Ratio of Weeds", "setting": "[2]; 95 days passed", "value": 20, "unit": "%"},
      {"measurement": "Average Height", "setting": "[2]; 95 days passed", "value": 10, "unit": "cm"},
      {"measurement": "Area Ratio of Weeds", "setting": "Imperata cylindrica; 0 days passed", "value": 5, "unit": "%"},
      {"measurement": "Average Height", "setting": "Imperata cylindrica; 0 days passed", "value": 5, "unit": "cm"},
      {"measurement": "Area Ratio of Weeds", "setting": "Imperata cylindrica; 7 days passed", "value": 10, "unit": "%"},
      {"measurement": "Average Height", "setting": "Imperata cylindrica; 7 days passed", "value": 15, "unit": "cm"},
      {"measurement": "Area Ratio of Weeds", "setting": "Imperata cylindrica; 14 days passed", "value": 30, "unit": "%"},
      {"measurement": "Average Height", "setting": "Imperata cylindrica; 14 days passed", "value": 25, "unit": "cm"},
      {"measurement": "Area Ratio of Weeds", "setting": "Imperata cylindrica; 21 days passed", "value": 50, "unit": "%"},
      {"measurement": "Average Height", "setting": "Imperata cylindrica; 21 days passed", "value": 45, "unit": "cm"},
      {"measurement": "Area Ratio of Weeds", "setting": "Imperata cylindrica; 26 days passed", "value": 50, "unit": "%"},
      {"measurement": "Average Height", "setting": "Imperata cylindrica; 26 days passed", "value": 50, "unit": "cm"},
      {"measurement": "Area Ratio of Weeds", "setting": "Imperata cylindrica; 54 days passed", "value": 0, "unit": "%"},
      {"measurement": "Average Height", "setting": "Imperata cylindrica; 54 days passed", "value": 0, "unit": "cm"},
      {"measurement": "Area Ratio of Weeds", "setting": "Imperata cylindrica; 64 days passed", "value": 0, "unit": "%"},
      {"measurement": "Average Height", "setting": "Imperata cylindrica; 64 days passed", "value": 0, "unit": "cm"},
      {"measurement": "Area Ratio of Weeds", "setting": "Imperata cylindrica; 67 days passed", "value": 0, "unit": "%"},
      {"measurement": "Average Height", "setting": "Imperata cylindrica; 67 days passed", "value": 0, "unit": "cm"},
      {"measurement": "Area Ratio of Weeds", "setting": "Imperata cylindrica; 73 days passed", "value": 0, "unit": "%"},
      {"measurement": "Average Height", "setting": "Imperata cylindrica; 73 days passed", "value": 0, "unit": "cm"},
      {"measurement": "Area Ratio of Weeds", "setting": "Imperata cylindrica; 78 days passed", "value": 5, "unit": "%"},
      {"measurement": "Average Height", "setting": "Imperata cylindrica; 78 days passed", "value": 5, "unit": "cm"},
      {"measurement": "Area Ratio of Weeds", "setting": "Imperata cylindrica; 86 days passed", "value": 5, "unit": "%"},
      {"measurement": "Average Height", "setting": "Imperata cylindrica; 86 days passed", "value": 7, "unit": "cm"},
      {"measurement": "Area Ratio of Weeds", "setting": "Imperata cylindrica; 91 days passed", "value": 5, "unit": "%"},
      {"measurement": "Average Height", "setting": "Imperata cylindrica; 91 days passed", "value": 7, "unit": "cm"},
      {"measurement": "Area Ratio of Weeds", "setting": "Imperata cylindrica; 95 days passed", "value": 5, "unit": "%"},
      {"measurement": "Average Height", "setting": "Imperata cylindrica; 95 days passed", "value": 10, "unit": "cm"},
      {"measurement": "state of weeds the next day of treatment", "setting": "[3]", "value": "killed"},
      {"measurement": "state of weeds the next day of treatment", "setting": "[4]", "value": "killed"},
      {"measurement": "pH", "setting": "[5]", "value": "about 8.2"},
      {"measurement": "time after spraying until weeds start to die", "setting": "[6]; in autumn", "value": "4 to 5", "unit": "days"},
      {"measurement": "time after spraying until weeds start to die", "setting": "[6]; in summer", "value": "1 to 2", "unit": "days"},
      {"measurement": "duration of spraying until weeds start to die", "setting": "[7]", "value": "2-3 weeks"}
    ]}
  ]
}
